For one assay, the target named is Mu-type opioid receptor (Homo sapiens, UniProt P35372). Put plainly: DRUGMATRIX: Opiate mu (OP3, MOP) radioligand binding (ligand: [3H] Diprenorphine). Format: cell membranes, CHO-K1, Membrane. The note with it: cho-k1; Not Active = under 50% inhibition at 10 µM.
Assay [1] concerns the target 5-hydroxytryptamine receptor 1B (Rattus norvegicus, UniProt P28564). Format: cell membranes, Wistar, Cerebral cortex, Membrane. Further: in other assays of this panel Not Active means under 50% inhibition at 10 µM.
Assay [2] concerns the target T1, Angiotensin-converting enzyme (Oryctolagus cuniculus, UniProt P12822).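 Further: enzymatic inhibition of angiotensin-converting enzyme measured with FAPGG as the substrate; in other assays of this panel Not Active means under 50% inhibition at 10 µM.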
T1 sequence (P12822 whole entry): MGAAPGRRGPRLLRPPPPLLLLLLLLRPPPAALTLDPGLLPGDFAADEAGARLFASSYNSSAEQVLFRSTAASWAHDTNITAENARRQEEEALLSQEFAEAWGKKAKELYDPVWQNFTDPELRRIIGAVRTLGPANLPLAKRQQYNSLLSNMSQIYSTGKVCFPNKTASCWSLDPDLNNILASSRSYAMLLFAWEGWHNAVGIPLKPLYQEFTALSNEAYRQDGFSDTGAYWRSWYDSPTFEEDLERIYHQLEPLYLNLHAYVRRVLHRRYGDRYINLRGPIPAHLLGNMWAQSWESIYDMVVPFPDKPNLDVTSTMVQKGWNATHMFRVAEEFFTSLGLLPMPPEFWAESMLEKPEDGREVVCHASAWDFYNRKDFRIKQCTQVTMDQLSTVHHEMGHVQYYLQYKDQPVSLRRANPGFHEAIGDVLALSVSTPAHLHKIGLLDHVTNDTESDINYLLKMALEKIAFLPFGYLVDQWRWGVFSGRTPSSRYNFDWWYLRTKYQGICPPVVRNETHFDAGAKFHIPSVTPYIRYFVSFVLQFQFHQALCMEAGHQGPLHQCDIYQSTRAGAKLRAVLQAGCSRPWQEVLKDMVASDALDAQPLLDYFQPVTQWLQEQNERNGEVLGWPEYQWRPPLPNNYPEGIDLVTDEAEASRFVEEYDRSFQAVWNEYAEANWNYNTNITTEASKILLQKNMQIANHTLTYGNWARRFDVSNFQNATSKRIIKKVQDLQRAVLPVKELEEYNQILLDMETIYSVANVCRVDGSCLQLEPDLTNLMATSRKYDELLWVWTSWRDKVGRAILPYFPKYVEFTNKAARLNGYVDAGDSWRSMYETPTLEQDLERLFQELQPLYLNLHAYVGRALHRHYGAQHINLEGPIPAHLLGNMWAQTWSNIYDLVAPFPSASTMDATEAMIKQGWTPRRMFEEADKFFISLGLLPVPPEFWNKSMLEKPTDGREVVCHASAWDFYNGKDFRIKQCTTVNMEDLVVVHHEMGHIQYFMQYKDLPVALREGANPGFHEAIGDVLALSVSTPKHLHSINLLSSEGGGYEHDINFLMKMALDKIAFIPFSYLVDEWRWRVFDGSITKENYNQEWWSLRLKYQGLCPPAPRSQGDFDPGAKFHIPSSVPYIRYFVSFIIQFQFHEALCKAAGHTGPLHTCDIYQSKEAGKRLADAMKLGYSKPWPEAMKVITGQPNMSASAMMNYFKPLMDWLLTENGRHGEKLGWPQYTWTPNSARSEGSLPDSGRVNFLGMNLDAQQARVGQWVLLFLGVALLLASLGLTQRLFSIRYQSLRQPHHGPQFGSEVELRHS
Put plainly: biochemical. The assay is classed as tissue-based, Lung.

Assay [3] in a line: DRUGMATRIX: Glutamate, Kainate radioligand binding (ligand: [3H] Kainic acid). Format: cell membranes, Rattus norvegicus, Wistar, Brain, Membrane. To be noted: Not Active = under 50% inhibition at 10 µM.
Assay [4] addresses Sigma non-opioid intracellular receptor 1 (Homo sapiens, UniProt Q99720). Put plainly: DRUGMATRIX: Sigma1 radioligand binding (ligand: [3H] Haloperidol). Format: cell membranes, Jurkat, Membrane. To be noted: jurkat; Not Active = under 50% inhibition at 10 µM.
Assay [5] is described as follows: DRUGMATRIX: Interleukin IL-1 radioligand binding (ligand: [125I] interleukin 1beta). The assay is classed as cell membranes, Membrane. To be noted: nih3t3; Not Active = under 50% inhibition at 10 µM.
In assay [6] the target is C-C chemokine receptor type 5 (Homo sapiens, UniProt P51681). The assay is classed as cell membranes, HEK293, Membrane. To be noted: hek293. Further: in other assays of this panel Not Active means under 50% inhibition at 10 µM.
Sequence of C-C chemokine receptor type 5 (P51681 whole entry): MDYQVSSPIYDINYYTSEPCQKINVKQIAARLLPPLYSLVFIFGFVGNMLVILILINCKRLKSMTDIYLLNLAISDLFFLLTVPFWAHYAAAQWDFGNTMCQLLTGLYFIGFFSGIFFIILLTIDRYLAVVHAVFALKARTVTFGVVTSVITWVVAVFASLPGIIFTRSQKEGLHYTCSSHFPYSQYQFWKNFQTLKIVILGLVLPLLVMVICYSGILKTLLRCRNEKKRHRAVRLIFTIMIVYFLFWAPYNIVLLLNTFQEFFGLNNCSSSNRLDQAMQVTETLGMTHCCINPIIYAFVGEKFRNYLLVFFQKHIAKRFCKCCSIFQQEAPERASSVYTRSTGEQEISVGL

Sequence of 5-hydroxytryptamine receptor 1B (P28564 whole entry): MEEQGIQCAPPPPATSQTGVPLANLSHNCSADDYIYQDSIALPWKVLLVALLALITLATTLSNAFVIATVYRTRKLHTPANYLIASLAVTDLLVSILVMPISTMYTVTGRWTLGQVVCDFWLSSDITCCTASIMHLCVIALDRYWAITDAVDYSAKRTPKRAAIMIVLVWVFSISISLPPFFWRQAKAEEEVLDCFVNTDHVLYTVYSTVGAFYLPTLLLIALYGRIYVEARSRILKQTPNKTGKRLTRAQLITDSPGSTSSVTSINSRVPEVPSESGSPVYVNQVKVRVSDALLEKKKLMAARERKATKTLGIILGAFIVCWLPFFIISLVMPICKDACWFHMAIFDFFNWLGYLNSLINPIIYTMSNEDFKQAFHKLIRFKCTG
Sequence of Sigma non-opioid intracellular receptor 1 (Q99720 whole entry): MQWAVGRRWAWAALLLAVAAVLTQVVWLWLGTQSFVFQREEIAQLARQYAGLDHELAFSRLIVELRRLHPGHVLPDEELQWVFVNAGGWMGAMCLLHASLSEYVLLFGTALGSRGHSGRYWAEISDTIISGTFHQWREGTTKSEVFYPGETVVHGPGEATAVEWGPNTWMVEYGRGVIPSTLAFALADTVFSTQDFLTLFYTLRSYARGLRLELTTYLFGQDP
Sequence of Mu-type opioid receptor (P35372 whole entry): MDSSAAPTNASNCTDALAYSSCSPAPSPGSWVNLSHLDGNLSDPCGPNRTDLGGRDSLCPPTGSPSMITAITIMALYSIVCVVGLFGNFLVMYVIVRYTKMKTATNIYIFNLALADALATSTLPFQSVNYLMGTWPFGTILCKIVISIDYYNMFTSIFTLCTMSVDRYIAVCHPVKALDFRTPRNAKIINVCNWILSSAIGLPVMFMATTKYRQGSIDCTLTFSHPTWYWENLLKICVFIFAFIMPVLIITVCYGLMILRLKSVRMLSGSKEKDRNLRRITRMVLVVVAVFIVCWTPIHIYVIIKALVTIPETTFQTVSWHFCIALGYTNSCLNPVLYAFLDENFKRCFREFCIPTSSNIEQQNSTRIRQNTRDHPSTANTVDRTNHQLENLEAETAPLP

Turning to `CC(C)Cn1cnc2c(N)nc3ccccc3c21` [IMIQUIMOD], the IC50 result (at Mu-type opioid receptor; in assay [1]; in assay [2]; in assay [3]; in assay [4]; in assay [5]) was “Not Active” in each case. In addition, the IC50 (usually the concentration that gives 50% inhibition) in assay [6] was “Not Active”. The Ki entry in assay [3] and in assay [5] was “Not Active” each time.
With `O=C(NCCN1CCOCC1)c1ccc(Cl)cc1` [MOCLOBEMIDE], the IC50 result (at Mu-type opioid receptor; in assay [1]; in assay [2]; in assay [3]; in assay [4]; in assay [5]) was “Not Active” in each case. For the same compound, the IC50 result in assay [6] was “Not Active”. Besides, the Ki result in assay [3] and in assay [5] was “Not Active” throughout.
Turning to `Cc1ccnc2c1NC(=O)c1cccnc1N2C1CC1` [NEVIRAPINE], the IC50 entry (on Mu-type opioid receptor; in assay [1]; in assay [2]; in assay [3]; in assay [4]; in assay [5]) was “Not Active” in each case. Also, the IC50 result in assay [6] was “Not Active”. For the same compound, the inhibition constant (Ki) entry in assay [3] and in assay [5] was “Not Active” each time.
In the case of `O=C1CN(/N=C/c2ccc([N+](=O)[O-])o2)C(=O)N1` [NITROFURANTOIN], the IC50 entry (on Mu-type opioid receptor; in assay [1]; in assay [2]; in assay [3]; in assay [4]; in assay [5]) was “Not Active” in each case. Further, the IC50 result in assay [6] is “Not Active”. The Ki entry in assay [3] and in assay [5] was “Not Active” in each case.
Turning to `C#C[C@]1(O)CC[C@H]2[C@@H]3CCC4=CC(=O)CC[C@@H]4[C@H]3CC[C@@]21C` [NORETHINDRONE], the IC50 result (at Mu-type opioid receptor; in assay [1]; in assay [2]; in assay [3]; in assay [4]; in assay [5]) was “Not Active” each time. The IC50 entry in assay [6] is listed as “Not Active”. In addition, the Ki entry in assay [3] and in assay [5] was “Not Active” throughout.
In the case of `O=C(O)CCc1nc(-c2ccccc2)c(-c2ccccc2)o1` [OXAPROZIN], the IC50 result (on Mu-type opioid receptor; in assay [1]; in assay [2]; in assay [3]; in assay [4]; in assay [5]) was “Not Active” throughout. The IC50 entry in assay [6] is “Not Active”. Also, the Ki result in assay [3] and in assay [5] was “Not Active” throughout.
With `Cc1cc(C(C)(C)C)c(O)c(C)c1CC1=NCCN1` [OXYMETAZOLINE], the IC50 entry on Mu-type opioid receptor was “Not Active”; in assay [1] (read-out: IC50), 2 nM; in assay [2], “Not Active”; in assay [3], “Not Active”; in assay [4] it was “Not Active”; in assay [5] it was “Not Active”. The IC50 result in assay [6] is recorded as “Not Active”. Also, the results for the Ki in assay [1] (read-out: Ki), in assay [3] and in assay [5] were 0.909 nM, “Not Active” and “Not Active”, respectively.
As to `NC(=O)NC(=O)Cc1ccccc1` [PHENACEMIDE], the IC50 entry (on Mu-type opioid receptor; in assay [1]; in assay [2]; in assay [3]; in assay [4]; in assay [5]) was “Not Active” each time. In addition, the IC50 result in assay [6] is listed as “Not Active”. In addition, the Ki entry in assay [3] and in assay [5] was “Not Active” each time.
Turning to `O=C1c2ccccc2C(=O)C1c1ccccc1` [PHENINDIONE], the IC50 entry (at Mu-type opioid receptor; in assay [1]; in assay [2]; in assay [3]; in assay [4]; in assay [5]) was “Not Active” in each case. Further, in assay [6], the IC50 result was “Not Active”. Besides, the Ki entry in assay [3] and in assay [5] was “Not Active” throughout.

Values taken from ChEMBL document CHEMBL1909046, “DrugMatrix in vitro pharmacology data”.
